System: 991263-137-R1-J2-PDC complex spheroid viability
Test: Anticancer human tumor 991263-137-R1-J2-PDC patient-derived colon adenocarcinoma cell line growth inhibition [POLQ]
Conditions: for IC50: curve of first compound; for viability, T/C: stronger effect = lower value
Procedure, shortened: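 PDC + HUVEC + MSC complex spheroids; POLQ inhibitors ± partner drugs; top conc. at/near clinical Cmax, else 10 microM (SN-38 1 microM), half-log dilutions; 37 degrees C, 5% CO2.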

[1] = second compound 0.0316 µM, first compound 0.0316 µM
[2] = second compound 0.0316 µM, first compound 0.1 µM
[3] = second compound 0.0316 µM, first compound 0.316 µM
[4] = second compound 0.0316 µM, first compound 1 µM
[5] = second compound 0.0316 µM, first compound 3.16 µM
[6] = second compound 0.0316 µM, first compound 10 µM
[7] = second compound 0.1 µM, first compound 0.0316 µM
[8] = second compound 0.1 µM, first compound 0.1 µM
[9] = second compound 0.1 µM, first compound 0.316 µM
[10] = second compound 0.1 µM, first compound 1 µM
[11] = second compound 0.1 µM, first compound 3.16 µM
[12] = second compound 0.1 µM, first compound 10 µM
[13] = second compound 0.316 µM, first compound 0.0316 µM
[14] = second compound 0.316 µM, first compound 0.1 µM
[15] = second compound 0.316 µM, first compound 0.316 µM
[16] = second compound 0.316 µM, first compound 1 µM
[17] = second compound 0.316 µM, first compound 3.16 µM
[18] = second compound 0.316 µM, first compound 10 µM
[19] = second compound 1 µM, first compound 0.0316 µM
[20] = second compound 1 µM, first compound 0.1 µM
[21] = second compound 1 µM, first compound 0.316 µM
[22] = second compound 1 µM, first compound 1 µM
[23] = second compound 1 µM, first compound 3.16 µM
[24] = second compound 1 µM, first compound 10 µM
[25] = second compound 3.16 µM, first compound 0.0316 µM
[26] = second compound 3.16 µM, first compound 0.1 µM
[27] = second compound 3.16 µM, first compound 0.316 µM
[28] = second compound 3.16 µM, first compound 1 µM
[29] = second compound 3.16 µM, first compound 3.16 µM
[30] = second compound 3.16 µM, first compound 10 µM
[31] = second compound 10 µM, first compound 0.0316 µM
[32] = second compound 10 µM, first compound 0.1 µM
[33] = second compound 10 µM, first compound 0.316 µM
[34] = second compound 10 µM, first compound 1 µM
[35] = second compound 10 µM, first compound 3.16 µM
[36] = second compound 10 µM, first compound 10 µM
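Also: spheroids exposed to compounds for 7 days before readout.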
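For viability, T/C in this document: 100% = DMSO vehicle control viability.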

SMILES: C=CC(=O)N1CCN(c2nc(=O)n(-c3c(C)ccnc3C(C)C)c3nc(-c4c(O)cccc4F)c(F)cc23)C(C)C1 (stereo not drawn) + Nc1ccc(C#CCN(C(=O)Cc2ncc(C(F)(F)F)cc2C(F)(F)F)c2ccc(F)cc2)nn1
- IC50 (second compound 0.0316 µM): > 10 µM
- IC50 (second compound 0.1 µM): > 10 µM
- IC50 (second compound 0.316 µM): > 10 µM
- IC50 (second compound 1 µM): > 10 µM
- IC50 (second compound 3.16 µM): > 10 µM
- IC50 (second compound 10 µM): > 10 µM
- viability, T/C [1]: 108%
- viability, T/C [2]: 100%
- viability, T/C [3]: 99.3%
- viability, T/C [4]: 96.5%
- viability, T/C [5]: 109%
- viability, T/C [6]: 116%
- viability, T/C [7]: 102%
- viability, T/C [8]: 104%
- viability, T/C [9]: 114%
- viability, T/C [10]: 98%
- viability, T/C [11]: 117%
- viability, T/C [12]: 105%
- viability, T/C [13]: 104%
- viability, T/C [14]: 105%
- viability, T/C [15]: 102%
- viability, T/C [16]: 96.7%
- viability, T/C [17]: 113%
- viability, T/C [18]: 106%
- viability, T/C [19]: 110%
- viability, T/C [20]: 105%
- viability, T/C [21]: 107%
- viability, T/C [22]: 97.7%
- viability, T/C [23]: 107%
- viability, T/C [24]: 100%
- viability, T/C [25]: 94.5%
- viability, T/C [26]: 85.6%
- viability, T/C [27]: 102%
- viability, T/C [28]: 102%
- viability, T/C [29]: 106%
- viability, T/C [30]: 110%
- viability, T/C [31]: 96.6%
- viability, T/C [32]: 107%
- viability, T/C [33]: 90.6%
- viability, T/C [34]: 117%
- viability, T/C [35]: 99.8%
- viability, T/C [36]: 100%

SMILES: CCc1cc2c(N3CCc4c(cc(Cn5ccnc5)cc4-c4cn(C)nc4C(F)(F)F)C3=O)ccnc2c(OC)n1 + Nc1ccc(C#CCN(C(=O)Cc2ncc(C(F)(F)F)cc2C(F)(F)F)c2ccc(F)cc2)nn1
- IC50 (second compound 0.0316 µM): > 10 µM
- IC50 (second compound 0.1 µM): > 10 µM
- IC50 (second compound 0.316 µM): > 10 µM
- IC50 (second compound 1 µM): > 10 µM
- IC50 (second compound 3.16 µM): > 10 µM
- IC50 (second compound 10 µM): > 10 µM
- viability, T/C [1]: 118%
- viability, T/C [2]: 109%
- viability, T/C [3]: 101%
- viability, T/C [4]: 92.2%
- viability, T/C [5]: 91.5%
- viability, T/C [6]: 88.7%
- viability, T/C [7]: 97.1%
- viability, T/C [8]: 103%
- viability, T/C [9]: 108%
- viability, T/C [10]: 101%
- viability, T/C [11]: 96%
- viability, T/C [12]: 90.2%
- viability, T/C [13]: 107%
- viability, T/C [14]: 99.8%
- viability, T/C [15]: 106%
- viability, T/C [16]: 111%
- viability, T/C [17]: 103%
- viability, T/C [18]: 79.3%
- viability, T/C [19]: 95.1%
- viability, T/C [20]: 107%
- viability, T/C [21]: 108%
- viability, T/C [22]: 91.9%
- viability, T/C [23]: 97.4%
- viability, T/C [24]: 95.7%
- viability, T/C [25]: 116%
- viability, T/C [26]: 112%
- viability, T/C [27]: 87%
- viability, T/C [28]: 101%
- viability, T/C [29]: 95.3%
- viability, T/C [30]: 89.6%
- viability, T/C [31]: 95.1%
- viability, T/C [32]: 102%
- viability, T/C [33]: 107%
- viability, T/C [34]: 89.8%
- viability, T/C [35]: 86.4%
- viability, T/C [36]: 82.9%

SMILES: COc1cc2cc(C(=O)CCC(=O)O)sc2cc1OC + Nc1ccc(C#CCN(C(=O)Cc2ncc(C(F)(F)F)cc2C(F)(F)F)c2ccc(F)cc2)nn1
- IC50 (second compound 0.0316 µM): > 10 µM
- IC50 (second compound 0.1 µM): > 10 µM
- IC50 (second compound 0.316 µM): > 10 µM
- IC50 (second compound 1 µM): > 10 µM
- IC50 (second compound 3.16 µM): > 10 µM
- IC50 (second compound 10 µM): > 10 µM
- viability, T/C [1]: 115%
- viability, T/C [2]: 108%
- viability, T/C [3]: 111%
- viability, T/C [4]: 116%
- viability, T/C [5]: 87.9%
- viability, T/C [6]: 84.8%
- viability, T/C [7]: 116%
- viability, T/C [8]: 115%
- viability, T/C [9]: 95.8%
- viability, T/C [10]: 98.7%
- viability, T/C [11]: 113%
- viability, T/C [12]: 93.8%
- viability, T/C [13]: 97.1%
- viability, T/C [14]: 105%
- viability, T/C [15]: 102%
- viability, T/C [16]: 104%
- viability, T/C [17]: 95%
- viability, T/C [18]: 77.5%
- viability, T/C [19]: 107%
- viability, T/C [20]: 103%
- viability, T/C [21]: 108%
- viability, T/C [22]: 96.8%
- viability, T/C [23]: 104%
- viability, T/C [24]: 86.6%
- viability, T/C [25]: 106%
- viability, T/C [26]: 99.6%
- viability, T/C [27]: 105%
- viability, T/C [28]: 103%
- viability, T/C [29]: 105%
- viability, T/C [30]: 88.2%
- viability, T/C [31]: 101%
- viability, T/C [32]: 96.6%
- viability, T/C [33]: 112%
- viability, T/C [34]: 94.7%
- viability, T/C [35]: 107%
- viability, T/C [36]: 82.1%

SMILES: O=C(Nc1ccc(O)c(NS(=O)(=O)c2ccc(F)cc2)c1)c1ccc(-c2ccccc2)cc1 + Nc1ccc(C#CCN(C(=O)Cc2ncc(C(F)(F)F)cc2C(F)(F)F)c2ccc(F)cc2)nn1
- IC50 (second compound 0.0316 µM): > 10 µM
- IC50 (second compound 0.1 µM): > 10 µM
- IC50 (second compound 0.316 µM): > 10 µM
- IC50 (second compound 1 µM): > 10 µM
- IC50 (second compound 3.16 µM): > 10 µM
- IC50 (second compound 10 µM): > 10 µM
- viability, T/C [1]: 97.7%
- viability, T/C [2]: 108%
- viability, T/C [3]: 107%
- viability, T/C [4]: 104%
- viability, T/C [5]: 119%
- viability, T/C [6]: 100%
- viability, T/C [7]: 111%
- viability, T/C [8]: 97.5%
- viability, T/C [9]: 108%
- viability, T/C [10]: 107%
- viability, T/C [11]: 107%
- viability, T/C [12]: 107%
- viability, T/C [13]: 101%
- viability, T/C [14]: 105%
- viability, T/C [15]: 107%
- viability, T/C [16]: 105%
- viability, T/C [17]: 114%
- viability, T/C [18]: 101%
- viability, T/C [19]: 96.2%
- viability, T/C [20]: 100%
- viability, T/C [21]: 104%
- viability, T/C [22]: 105%
- viability, T/C [23]: 97.2%
- viability, T/C [24]: 102%
- viability, T/C [25]: 107%
- viability, T/C [26]: 108%
- viability, T/C [27]: 95.7%
- viability, T/C [28]: 109%
- viability, T/C [29]: 97.4%
- viability, T/C [30]: 95.3%
- viability, T/C [31]: 102%
- viability, T/C [32]: 110%
- viability, T/C [33]: 94.5%
- viability, T/C [34]: 104%
- viability, T/C [35]: 92.5%
- viability, T/C [36]: 101%

From PubChem BioAssay AID1963828 (Molecular Pharmacology Branch, DTP, NCI, 2024)
